Data from patent US10208033B2, “β-carboline, dihydro-β-carboline and tetrahydro-β-carboline alkaloid derivatives and preparation methods same and use in aspects of preventing and treating plant viruses, fungicides and insecticides” (NANKAI UNIVERSITY, priority 2013, dated 2019).
Counter-ions that a name gives are not always drawn.

Legend:
[1] = system: tobacco mosaic virus (TMV); assay: Anti-TMV in vivo protective effect; design: species or system tobacco mosaic virus (host Nicotiana tabacum L.cv.Xanthi NN); conditions: Tobacco mosaic virus, read-out: Relative inhibition rate (%) In vivo protection; for inhibition at 100 µg/mL: treatment dose 100 μg/mL; for inhibition at 500 µg/mL: treatment dose 500 μg/mL
Macrophoma kawatsukai = assay: Fungicidal (bactericidal) activity in vitro, PDA colony diameter; type: cell-based; conditions: 50 mg/kg
Fusarium fujikuroi = assay: as above; type: cell-based; conditions: Fusarium fujikuroi, 96 h; 50 mg/kg
[2] = system: tobacco mosaic virus (TMV); assay: Anti-TMV in vitro effect (half-leaf soaking); type: cell-based, tobacco mosaic virus (host Nicotiana tabacum L.cv.Xanthi NN); conditions: Tobacco mosaic virus, read-out: Relative inhibition rate (%) In vitro activity; for inhibition at 100 µg/mL: treatment dose 100 μg/mL; for inhibition at 500 µg/mL: treatment dose 500 μg/mL
cotton bollworms = assay: whole plant or invertebrate; conditions: Helicoverpa armigera, in Gossypium hirsutum, read-out: Cotton bollworm Mortality (%)
Description: Experimental method of cotton bollworms: feed and drug mixing method: measure 3 mL of prepared solution and add it to about 27 g of newly prepared feed, thereby obtaining needed concentration through dilution by 10 times.

[3] = system: Colletotrichum orbiculare; assay: Fungicidal (bactericidal) activity in vitro, PDA colony diameter; type: cell-based; conditions: Colletotrichum orbiculare, 96 h; 50 mg/kg
[4] = system: tobacco mosaic virus (TMV); assay: Anti-TMV in vivo inactivation; design: species or system tobacco mosaic virus (host Nicotiana tabacum L.cv.Xanthi NN); conditions: Tobacco mosaic virus, read-out: Relative inhibition rate (%) In vivo inactivation; for inhibition at 100 µg/mL: treatment dose 100 μg/mL; for inhibition at 500 µg/mL: treatment dose 500 μg/mL
Rhizoctonia solani = assay: Fungicidal (bactericidal) activity in vitro, PDA colony diameter; type: cell-based; conditions: Rhizoctonia solani, 96 h; 50 mg/kg
Botrytis cinerea = assay: as above; type: cell-based; conditions: Botrytis cinerea, 96 h; 50 mg/kg
Cercospora arachidicola = assay: as above; type: cell-based; conditions: Mycosphaerella arachidis, 96 h; 50 mg/kg
Phytophthora capsici = assay: as above; type: cell-based; conditions: Phytophthora capsici, 96 h; 50 mg/kg
potato late blight = assay: microbe, parasite or virus in culture; type: cell-based; conditions: Phytophthora infestans, 96 h, read-out: Bactericidal activity (%) potato late blight
Sclerotinia scleotiorum = assay: Fungicidal (bactericidal) activity in vitro, PDA colony diameter; type: cell-based; conditions: Sclerotinia, 96 h; 50 mg/kg
Alternaria solani = assay: as above; type: cell-based; conditions: Alternaria solani, 96 h; 50 mg/kg
corn borers = assay: whole plant or invertebrate; conditions: read-out: Corn borer Mortality (%)
armyworms = type: in vivo; conditions: concentration 600 mg/kg
[5] = system: tobacco mosaic virus (TMV); assay: Anti-TMV in vivo therapeutic effect; design: species or system tobacco mosaic virus (host Nicotiana tabacum L.cv.Xanthi NN); conditions: Tobacco mosaic virus, read-out: Relative inhibition rate (%) In vivo therapy; for inhibition at 100 µg/mL: treatment dose 100 μg/mL; for inhibition at 500 µg/mL: treatment dose 500 μg/mL
Rhizoctonia cereali = assay: Fungicidal (bactericidal) activity in vitro, PDA colony diameter; type: cell-based; conditions: Rhizoctonia, 96 h; 50 mg/kg
mosquito larvae = assay: whole plant or invertebrate; conditions: Culex pipiens, 24 h, read-out: Mosquito larvae Mortality (%)
Outline: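 Compound dissolved in acetone (or other solvent) to a 1000 ppm stock and diluted in water to 5 ppm. Ten Culex pipiens pallens larvae at the start of the fourth instar, laboratory-reared, added per beaker; solvent-only aqueous control.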

Fusarium graminearumt = assay: microbe, parasite or virus in culture; type: cell-based; conditions: Fusarium, 96 h, read-out: Bactericidal activity (%) Fusarium graminearumt
cucumber fusarium wilt = assay: Fungicidal (bactericidal) activity in vitro, PDA colony diameter; type: cell-based; conditions: Fusarium, 96 h; 50 mg/kg
Bipolaria maydis = assay: organism not typed; type: cell-based; conditions: read-out: Bactericidal activity (%) Bipolaria maydis

SMILES | inhibition at 100 µg/mL [1] [%] | inhibition at 500 µg/mL [1] [%] | inhibition at 50 mg/kg (Macrophoma kawatsukai) [%] | inhibition of growth at 50 mg/kg (Fusarium fujikuroi) [%] | inhibition at 100 µg/mL [2] [%] | inhibition at 500 µg/mL [2] [%] | mortality at 600 mg/kg (cotton bollworms) [%] | inhibition of growth at 50 mg/kg [3] [%] | inhibition at 100 µg/mL [4] [%] | inhibition at 500 µg/mL [4] [%] | inhibition of growth at 50 mg/kg (Rhizoctonia solani) [%] | inhibition of growth at 50 mg/kg (Botrytis cinerea) [%] | inhibition of growth at 50 mg/kg (Cercospora arachidicola) [%] | inhibition of growth at 50 mg/kg (Phytophthora capsici) [%] | inhibition of growth at 50 mg/kg (potato late blight) [%] | inhibition of growth at 50 mg/kg (Sclerotinia scleotiorum) [%] | inhibition of growth at 50 mg/kg (Alternaria solani) [%] | mortality at 600 mg/kg (corn borers) [%] | Armyworm Mortality (%) (armyworms) | inhibition at 100 µg/mL [5] [%] | also measured
Cc1nccc2c1[nH]c1c([N+](=O)[O-])cccc12 [Ia-4] | 5.8 | 30.1 | 35.7 | 21.4 | 0 | 30 | 10 | 42.9 | 10.5 | 36.4 | 42.1 | 18.2 | 53.9 | 9.4 | 27.3 | 29.4 | 15.8 | 5 | 10 | 0 | inhibition at 500 µg/mL [5]: 33.3%; inhibition of growth at 50 mg/kg (Rhizoctonia cereali): 50%; mortality at 10 mg/kg (mosquito larvae): 30%; inhibition of growth at 50 mg/kg (Fusarium graminearumt): 42.9%; inhibition of growth at 50 mg/kg (cucumber fusarium wilt): 38.5%; inhibition at 50 mg/kg (Bipolaria maydis): 36.4%
Cc1nccc2c1[nH]c1cc(OC(=O)NC(C)C)ccc12 [Ia-5, isopropylamino formate (1-methylpyridino [3,4-b]indol-7)-ester] | 5.8 | 40.3 | 2.4 | 14.3 | 0 | 31.3 | 15 | 39.3 | 0 | 29.5 | 6.6 | 0 | 53.9 | 25 | 18.2 | 9.8 | 21.1 | 10 | 10 | 0 | inhibition at 500 µg/mL [5]: 32.7%; inhibition of growth at 50 mg/kg (Rhizoctonia cereali): 36.8%; mortality at 10 mg/kg (mosquito larvae): 30%; inhibition of growth at 50 mg/kg (Fusarium graminearumt): 23.8%; inhibition of growth at 50 mg/kg (cucumber fusarium wilt): 34.6%; inhibition at 50 mg/kg (Bipolaria maydis): 22.7%
Cc1nccc2c1[nH]c1cc(OC(=O)[C@@H](NC(=O)OCc3ccccc3)C(C)C)ccc12 [Ia-9] | 0 | 19.6 | 78.6 | 21.4 | 0 | 20.7 | 20 | 50 | 0 | 13.6 | 52.6 | 51.5 | 61.5 | 50 | 45.5 | 13.7 | 36.8 | 5 | 5 | 0 | inhibition at 500 µg/mL [5]: 12.5%; inhibition of growth at 50 mg/kg (Rhizoctonia cereali): 84.2%; mortality at 10 mg/kg (mosquito larvae): 25%; inhibition of growth at 50 mg/kg (Fusarium graminearumt): 35.7%; inhibition of growth at 50 mg/kg (cucumber fusarium wilt): 38.5%; inhibition at 50 mg/kg (Bipolaria maydis): 36.4%
Cc1nc(C(=O)O)cc2c1[nH]c1ccccc12 [Ia-11, 1-methyl-pyridino [3,4-b] indol-3-formic acid] | 0 | 21.4 | 82.4 | 35.7 | 0 | 32.5 | 10 | 38.1 | 0 | 27.3 | 42.9 | 63.6 | 50 | 60.6 | 25 | 72 | 33.3 | 10 | 10 | 0 | inhibition at 500 µg/mL [5]: 29.6%; inhibition of growth at 50 mg/kg (Rhizoctonia cereali): 53.1%; mortality at 10 mg/kg (mosquito larvae): 50%; inhibition of growth at 50 mg/kg (Fusarium graminearumt): 35.7%; inhibition of growth at 50 mg/kg (cucumber fusarium wilt): 19.1%; inhibition at 50 mg/kg (Bipolaria maydis): 21.1%
C[C@@H]1N[C@H](C(=O)O)Cc2c1[nH]c1ccccc21 [Ib-1, (1S, 3S)-1-methyl-2,3,4,9-tetrahydropyridino [3,4-b] indol-3-formic acid] | 20 | 41.3 | 23.8 | 21.4 | 18.9 | 41.6 | 25 | 35.7 | 13.5 | 35.5 | 26.3 | 21.2 | 30.8 | 18.8 | 27.3 | 7.8 | 21.1 | 25 | 25 | 15.8 | inhibition at 500 µg/mL [5]: 40.4%; inhibition of growth at 50 mg/kg (Rhizoctonia cereali): 42.1%; mortality at 10 mg/kg (mosquito larvae): 55%; inhibition of growth at 50 mg/kg (Fusarium graminearumt): 26.2%; inhibition of growth at 50 mg/kg (cucumber fusarium wilt): 19.2%; inhibition at 50 mg/kg (Bipolaria maydis): 22.7%
C[C@H]1N[C@@H](C(=O)O)Cc2c1[nH]c1ccccc21 [Ib-2, (1R,3R)-1-methyl-2,3,4,9-tetrahydropyridino [3,4-b] indol-3-formic acid] | 0 | 29.7 | 23.8 | 0 | 0 | 25 | 25 | 25 | 0 | 28.6 | 29 | 18.2 | 61.5 | 15.6 | 4.6 | 23.5 | 0 | 10 | 10 | 0 | inhibition at 500 µg/mL [5]: 31.5%; inhibition of growth at 50 mg/kg (Rhizoctonia cereali): 31.6%; mortality at 10 mg/kg (mosquito larvae): 30%; inhibition of growth at 50 mg/kg (Fusarium graminearumt): 21.4%; inhibition of growth at 50 mg/kg (cucumber fusarium wilt): 23.1%; inhibition at 50 mg/kg (Bipolaria maydis): 9.1%
O=C(O)[C@@H]1Cc2c([nH]c3ccccc23)[C@H](c2ccccc2)N1 [Ib-5, (1S, 3S)-1-phenyl-2,3,4,9-tetrahydropyridino [3,4-b] indol-3-formic acid] | 0 | 32.3 | 11.9 | 42.9 | 0 | 19.7 | 30 | 35.7 | 0 | 27.6 | 36.8 | 21.2 | 69.2 | 12.5 | 22.7 | 9.8 | 15.8 | 35 | 50 | 0 | inhibition at 500 µg/mL [5]: 24.3%; inhibition of growth at 50 mg/kg (Rhizoctonia cereali): 44.7%; mortality at 5 mg/kg (mosquito larvae): 30%; mortality at 10 mg/kg (mosquito larvae): 100%; inhibition of growth at 50 mg/kg (Fusarium graminearumt): 26.2%; inhibition of growth at 50 mg/kg (cucumber fusarium wilt): 19.2%; inhibition at 50 mg/kg (Bipolaria maydis): 22.7%
